Among the data in patent publication US10081633B2, “Adenylyl cyclase inhibitors, pharmaceutical compositions and method of use thereof” (priority 2016, dated 2018) are IC50 values, retold here.

One assay addresses T1, type VI adenylyl cyclase (Homo sapiens, UniProt O43306).
T1 construct: from tissue; host or cells: heart (cardiomyocyte) membrane preparations from transgenic mice overproducing type VI adenylyl cyclase
The assay is described as follows: Adenylyl cyclase membrane assay, type VI (cAMP ELISA). It is filed as biochemical, mouse. The conditions noted are these: cardiomyocyte membrane preparations from transgenic mice; forskolin 50 μM. How it is done: (§1) Compounds were assayed for their ability to attenuate cyclic AMP (cAMP) production in cardiomyocyte membrane preparations isolated from transgenic mice. Transgenic mice were separately bred to overproduce type V adenylyl cyclase, type VI adenylyl cyclase and type II adenylyl cyclase. cAMP levels were determined using a Cyclic AMP Competitive ELISA kit purchased from ThermoFischer Scientific (Cat# EMSCAMPL).
(§2) Buffer A (pH 8) was prepared comprising final concentrations of the following: 50 mM Tris, 1 mM EGTA, 1 mM EDTA, 1 mM DTT, 100 mM sucrose, 20 μg/mL TPCK (protease inhibitor), 20 μg/mL TLCK (protease inhibitor), 1 mM PMSF (protease inhibitor), 10 μg/mL leupeptin (protease inhibitor) and 10 μg/mL aprotinin (protease inhibitor).
(§3) Buffer B (pH 8) was prepared comprising final concentrations of the following: 50 mM Tris, 1 mM EDTA, 100 mM sucrose, 0.2 mM PMSF (protease inhibitor), 2 μg/mL leupeptin (protease inhibitor) and 2 μg/mL aprotinin (protease inhibitor).
Hearts were surgically excised from transgenic mice. Each isolated heart was treated with 3-4 mL of buffer A and cooled to 0 deg C. for 5 minutes. Treated hearts were homogenized for 10 seconds using a Polytron homogenizer cooled to 0 deg C. and set to speed 6. Homogenized hearts were centrifuged at 500×g at 4 deg C. for 10 minutes. Supernatants were transferred to ultracentrifuge tubes and centrifuged at 35,000 rpm at 4 deg C. for 40 minutes. Isolated pellets were combined with buffer B (500 μL) and sonicated to a suspension. Protein concentration was determined using a commercial Bradford assay kit. Membrane preparations were stored at −80 deg C. […]
(§4) A reaction mixture was pre-incubated at 30 deg C. for 5 minutes. […] The cAMP concentration of the supernatant was measured using a Cyclic AMP Competitive ELISA kit purchased from ThermoFischer Scientific.
(An ELISA detects its analyte on a solid surface through an enzyme-linked reagent.)

In assay [1] the test system is H9c2(2-1) myoblast cell line. As to the kind of experiment: Adenylyl cyclase cell-based assay, isoproterenol-stimulated cAMP. The conditions noted are these: Rattus norvegicus; H9c2 cells, isoproterenol 5 mM. The method, then:
(§5) H9c2(2-1) myoblast cell line was obtained from ATCC (CRL-1446). Cells (10^5 cells/mL) were seeded in 24-well plates at 5×10^4 cells per well. Cells were allowed to attach over 24 hours. The cells were then washed with PBS. Serum-free DMEM supplemented with 20 mM HEPES and 0.5 mM IBMX was added and the cells were incubated at 37 deg C. for 20 minutes. An Adenylyl Cyclase inhibitor (0.001-100 μM in DMSO/water with DMSO concentration <1%) was added and the mixture was incubated at 37 deg C. for 10 minutes. Forskolin (50 μM in DMSO/water with DMSO concentration <1%) was added and the mixture was incubated at 37 deg C. for 10 minutes. As an alternative to forskolin, isoproterenol (5 mM in DMSO/water with DMSO concentration <1%) was added and the mixture was incubated at 37 deg C. for 15 minutes. The media was removed and the cells were lysed by addition of 0.1 M hydrochloric acid (200 μL) 0 deg C. Lysed mixtures were maintained at 0 deg C. for 10-20 minutes and the plates were then centrifuged at 3,000×g for 5 minutes. cAMP levels in the supernatant were measured using the ThermoScientific cAMP competitive ELISA (EMSCAMPL) kit with samples acetylated in glass or polypropylene tubes.

For a further assay, the target named is T2, type V adenylyl cyclase (Homo sapiens, UniProt O95622).
T2 construct: from tissue; host or cells: heart (cardiomyocyte) membrane preparations from transgenic mice overproducing type V adenylyl cyclase
As to the kind of experiment: Adenylyl cyclase membrane assay, type V (cAMP ELISA). The conditions noted are these: cardiomyocyte membrane preparations from transgenic mice; forskolin 50 μM. It is filed as biochemical, mouse. The method, then:
as §1, §2, §3
Hearts were surgically excised from transgenic mice. Each isolated heart was treated with 3-4 mL of buffer A and cooled to 0 deg C. for 5 minutes. Treated hearts were homogenized for 10 seconds using a Polytron homogenizer cooled to 0 deg C. and set to speed 6. Homogenized hearts were centrifuged at 500×g at 4 deg C. for 10 minutes. Supernatants were transferred to ultracentrifuge tubes and centrifuged at 35,000 rpm at 4 deg C. for 40 minutes. Isolated pellets were combined with buffer B (500 μL) and sonicated to a suspension. Protein concentration was determined using a commercial Bradford assay kit. Membrane preparations were stored at −80 deg C.
Buffer R (pH 8) was prepared comprising final concentrations in water of the following: HEPES (20 mM), magnesium chloride (5 mM), EDTA (0.5 mM), ATP (0.1 mM), phospho creatinine (1 mM), creatinine phosphokinase (8 units/mL), IBMX (200 μM), forskolin (50 μM) or control (DMSO in water).
Inhibitor solutions were prepared by dilution of stock solutions of inhibitors (10 mM in DMSO) to a final concentration of 100 μM in water. Serial dilutions with water were subsequently made in order to determine IC50 values.
Reaction mixtures were prepared comprising buffer R (10 μL), inhibitor or control (10 μL), and water (75 μL).
A reaction mixture was pre-incubated at 30 deg C. for 5 minutes. A membrane preparation (e.g. 5 μL for type V Adenylyl Cyclase comprising 2 μg of membrane protein per 5 μL of preparation) was added and the mixture was incubated at 30 deg C. for 15 minutes. The reaction was stopped by addition of 0.1 M hydrochloric acid (100 μL) and cooled to 0 deg C. The resulting mixture was incubated at 0 deg C. for 60 minutes. The cAMP concentration of the supernatant was measured using a Cyclic AMP Competitive ELISA kit purchased from ThermoFischer Scientific.

The target of another assay is T3, type II adenylyl cyclase (Homo sapiens, UniProt Q08462).
T3 construct: from tissue; host or cells: heart (cardiomyocyte) membrane preparations from transgenic mice overproducing type II adenylyl cyclase
The assay is described as follows: Adenylyl cyclase membrane assay, type II (cAMP ELISA). The conditions noted are these: cardiomyocyte membrane preparations from transgenic mice; forskolin 50 μM. Type of assay: biochemical, mouse. The method, then:
as §1, §2, §3
Hearts were surgically excised from transgenic mice. Each isolated heart was treated with 3-4 mL of buffer A and cooled to 0 deg C. for 5 minutes. […] Protein concentration was determined using a commercial Bradford assay kit. […]
as §4

For assay [2], the system named is H9c2(2-1) myoblast cell line. The assay is described as follows: Adenylyl cyclase cell-based assay, forskolin-stimulated cAMP. The conditions noted are these: Rattus norvegicus; H9c2 cells, forskolin 50 μM. The method, then: as §5

T1 sequence (O43306 whole entry): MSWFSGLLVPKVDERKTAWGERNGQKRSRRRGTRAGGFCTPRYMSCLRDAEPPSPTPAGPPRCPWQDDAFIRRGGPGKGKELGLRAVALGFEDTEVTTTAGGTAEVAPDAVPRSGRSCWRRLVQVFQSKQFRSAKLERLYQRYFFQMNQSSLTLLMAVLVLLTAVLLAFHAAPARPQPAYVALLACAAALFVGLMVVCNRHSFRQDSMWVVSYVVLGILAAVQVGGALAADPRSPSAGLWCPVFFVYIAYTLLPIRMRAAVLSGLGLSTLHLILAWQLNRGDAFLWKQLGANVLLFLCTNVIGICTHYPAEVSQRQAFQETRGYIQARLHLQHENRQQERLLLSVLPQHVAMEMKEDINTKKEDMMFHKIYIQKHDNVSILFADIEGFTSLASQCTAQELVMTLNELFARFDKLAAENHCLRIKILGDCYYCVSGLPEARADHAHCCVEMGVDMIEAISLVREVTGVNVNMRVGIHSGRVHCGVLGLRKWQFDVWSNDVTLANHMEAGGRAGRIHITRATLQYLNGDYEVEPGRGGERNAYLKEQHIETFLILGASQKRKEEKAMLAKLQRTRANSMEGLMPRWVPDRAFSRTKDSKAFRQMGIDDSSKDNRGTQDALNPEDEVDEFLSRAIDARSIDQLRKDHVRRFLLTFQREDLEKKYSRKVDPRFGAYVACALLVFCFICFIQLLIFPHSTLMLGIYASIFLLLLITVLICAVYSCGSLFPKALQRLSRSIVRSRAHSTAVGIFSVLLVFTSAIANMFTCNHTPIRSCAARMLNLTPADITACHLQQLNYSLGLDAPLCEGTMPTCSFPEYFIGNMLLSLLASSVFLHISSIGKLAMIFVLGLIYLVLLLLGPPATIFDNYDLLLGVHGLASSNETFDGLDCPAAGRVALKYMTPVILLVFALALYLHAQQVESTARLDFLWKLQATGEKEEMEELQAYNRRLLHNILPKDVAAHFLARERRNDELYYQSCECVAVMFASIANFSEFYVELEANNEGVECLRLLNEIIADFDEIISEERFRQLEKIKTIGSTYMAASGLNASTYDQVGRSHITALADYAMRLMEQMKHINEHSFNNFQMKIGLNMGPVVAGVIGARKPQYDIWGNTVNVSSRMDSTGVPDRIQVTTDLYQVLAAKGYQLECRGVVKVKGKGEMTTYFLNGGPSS
T3 sequence (Q08462 whole entry): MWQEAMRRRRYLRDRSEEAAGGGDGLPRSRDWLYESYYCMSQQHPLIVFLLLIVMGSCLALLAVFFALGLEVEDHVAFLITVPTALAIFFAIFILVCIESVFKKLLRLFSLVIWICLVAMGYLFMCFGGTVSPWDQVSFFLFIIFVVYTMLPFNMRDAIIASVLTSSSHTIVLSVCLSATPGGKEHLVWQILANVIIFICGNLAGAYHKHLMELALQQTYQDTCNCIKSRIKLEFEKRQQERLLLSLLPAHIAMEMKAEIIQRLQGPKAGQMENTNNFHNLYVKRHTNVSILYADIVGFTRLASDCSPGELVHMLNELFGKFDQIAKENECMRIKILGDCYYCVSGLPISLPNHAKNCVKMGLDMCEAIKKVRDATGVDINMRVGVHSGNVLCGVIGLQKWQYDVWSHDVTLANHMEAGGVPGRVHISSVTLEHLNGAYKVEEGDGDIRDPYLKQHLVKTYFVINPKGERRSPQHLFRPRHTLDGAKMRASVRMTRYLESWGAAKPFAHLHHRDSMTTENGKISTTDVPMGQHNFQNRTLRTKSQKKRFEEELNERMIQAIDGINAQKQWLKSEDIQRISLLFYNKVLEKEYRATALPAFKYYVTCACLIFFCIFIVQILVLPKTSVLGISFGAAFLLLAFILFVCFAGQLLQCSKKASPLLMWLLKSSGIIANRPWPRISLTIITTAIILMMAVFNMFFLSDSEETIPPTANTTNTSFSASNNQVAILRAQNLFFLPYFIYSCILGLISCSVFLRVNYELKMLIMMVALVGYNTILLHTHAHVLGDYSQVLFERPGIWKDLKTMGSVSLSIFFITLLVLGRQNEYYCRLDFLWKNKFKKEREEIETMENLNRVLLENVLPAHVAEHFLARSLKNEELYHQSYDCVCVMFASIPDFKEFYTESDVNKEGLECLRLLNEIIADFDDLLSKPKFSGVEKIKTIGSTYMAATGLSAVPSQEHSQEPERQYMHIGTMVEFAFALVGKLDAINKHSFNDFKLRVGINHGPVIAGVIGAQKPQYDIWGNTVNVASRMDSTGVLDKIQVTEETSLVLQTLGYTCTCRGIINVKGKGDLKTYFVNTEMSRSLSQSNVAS
T2 sequence (O95622 whole entry): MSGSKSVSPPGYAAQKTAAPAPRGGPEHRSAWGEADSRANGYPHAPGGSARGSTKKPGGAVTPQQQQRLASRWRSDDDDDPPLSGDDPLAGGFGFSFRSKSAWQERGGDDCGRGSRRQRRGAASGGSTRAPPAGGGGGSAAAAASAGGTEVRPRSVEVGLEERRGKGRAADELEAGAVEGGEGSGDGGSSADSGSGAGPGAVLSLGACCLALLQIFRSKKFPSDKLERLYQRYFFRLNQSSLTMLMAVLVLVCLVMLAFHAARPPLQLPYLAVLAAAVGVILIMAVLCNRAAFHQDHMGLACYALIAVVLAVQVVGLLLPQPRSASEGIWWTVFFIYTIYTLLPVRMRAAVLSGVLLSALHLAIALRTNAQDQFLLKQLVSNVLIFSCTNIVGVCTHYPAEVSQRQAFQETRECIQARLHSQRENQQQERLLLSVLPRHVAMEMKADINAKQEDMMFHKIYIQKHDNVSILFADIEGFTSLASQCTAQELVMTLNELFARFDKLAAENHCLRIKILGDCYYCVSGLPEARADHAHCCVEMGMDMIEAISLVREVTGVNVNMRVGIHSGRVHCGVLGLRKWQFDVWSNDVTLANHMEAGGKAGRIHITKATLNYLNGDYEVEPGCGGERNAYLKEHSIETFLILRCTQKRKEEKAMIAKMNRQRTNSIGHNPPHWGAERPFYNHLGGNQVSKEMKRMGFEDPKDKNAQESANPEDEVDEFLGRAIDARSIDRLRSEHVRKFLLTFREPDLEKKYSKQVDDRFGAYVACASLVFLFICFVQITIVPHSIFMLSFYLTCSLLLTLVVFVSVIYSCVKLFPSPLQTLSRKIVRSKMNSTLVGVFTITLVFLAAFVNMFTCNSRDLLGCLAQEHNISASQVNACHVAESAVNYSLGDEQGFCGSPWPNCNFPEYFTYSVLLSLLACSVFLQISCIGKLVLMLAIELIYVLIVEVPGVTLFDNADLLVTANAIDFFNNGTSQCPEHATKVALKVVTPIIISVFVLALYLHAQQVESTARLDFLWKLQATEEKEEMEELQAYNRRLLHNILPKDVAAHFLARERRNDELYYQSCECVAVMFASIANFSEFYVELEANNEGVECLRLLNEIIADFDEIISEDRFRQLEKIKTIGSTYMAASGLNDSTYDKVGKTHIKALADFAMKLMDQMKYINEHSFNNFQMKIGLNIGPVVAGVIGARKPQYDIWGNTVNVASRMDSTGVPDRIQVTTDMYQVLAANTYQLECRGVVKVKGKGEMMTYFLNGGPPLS

In general, IC50 refers to the midpoint of a concentration-inhibition curve. Low values mean inhibition by little substance, high ones a need for much substance. Turning to `Nc1nc(F)cc2c1ncn2[C@@H]1CC[C@@H](C(=O)NO)C1` [Compound 10v, (1R,3R)-3-(4-amino-6-fluoro-1H-imidazo[4,5-c]pyridin-1-yl)-N-hydroxycyclopentanecarboxamide], the IC50 came out at 30 nM on type VI adenylyl cyclase; 1890 nM in assay [1]; 30 nM against type V adenylyl cyclase; 1110 nM at type II adenylyl cyclase; 1140 nM in assay [2].
